{"source": "patent US20200216439A1", "about": "“HETERO-1,5,6,7-TETRAHYDRO-4H-INDOL-4-ONES” (BAYER PHARMA AKTIENGESELLSCHAFT, priority 2015, published 2020)"}
{"molecular_target": "T1, catalytic domain of human Bub1 (amino acids 704-1085) (Homo sapiens, UniProt O43683)", "T1 construct": "catalytic domain of human Bub1 (amino acids 704-1085); His6 (N); made in house; host or cells: Hi5 insect cells", "T1 sequence (O43683 704-1085)": "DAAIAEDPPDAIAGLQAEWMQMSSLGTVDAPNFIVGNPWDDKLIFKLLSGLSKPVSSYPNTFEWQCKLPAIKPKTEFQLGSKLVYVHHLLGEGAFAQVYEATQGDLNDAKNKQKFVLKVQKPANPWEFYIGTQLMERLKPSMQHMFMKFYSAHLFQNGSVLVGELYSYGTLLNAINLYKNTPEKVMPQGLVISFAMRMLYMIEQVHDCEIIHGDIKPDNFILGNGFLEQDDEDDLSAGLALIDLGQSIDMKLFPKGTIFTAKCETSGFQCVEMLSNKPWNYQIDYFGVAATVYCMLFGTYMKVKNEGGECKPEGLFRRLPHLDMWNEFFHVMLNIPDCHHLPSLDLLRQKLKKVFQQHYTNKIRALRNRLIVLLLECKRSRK", "experiment": "Bub1 kinase assay (TR-FRET)", "format": "biochemical", "conditions": "TR-FRET; ATP 10 μM, peptide substrate 1 μM; 60 min at 22° C.; average or median if tested more than once; read-out: Inhibition of Bub1 kinase IC50", "outline": "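Eleven concentrations (0.1 nM–20 μM, duplicate) fitted by 4-parameter logistic for IC50. Read-out: EDTA-stopped TR-FRET (665/620 nm) detecting anti-phosphoserine binding to biotin-peptide (1 μM). Reaction used 10 μM ATP, 60 min at 22 °C, after 15 min compound preincubation with His-tagged human Bub1 704-1085.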", "units": {"IC50": "nM"}}
{"smiles": "O=C1CN(C(=O)N2CCCC2)Cc2[nH]c(-c3ccncc3)c(Nc3ccccc3)c21", "note": "[Example 92, 3-(phenylamino)-2-(pyridin-4-yl)-6-(pyrrolidin-1-ylcarbonyl)-1,5,6,7-tetrahydro-4H-pyrrolo[2,3-c]pyridin-4-one]", "IC50": 4}
{"smiles": "O=C1CN(C(=O)N2CCCCC2)Cc2[nH]c(-c3ccncc3)c(Nc3ccccc3)c21", "note": "[Example 93, 3-(phenylamino)-6-(piperidin-1-ylcarbonyl)-2-(pyridin-4-yl)-1,5,6,7-tetrahydro-4H-pyrrolo[2,3-c]pyridin-4-one]", "IC50": 4}
{"smiles": "O=C1CN(C(=O)N2CCOCC2)Cc2[nH]c(-c3ccncc3)c(Nc3ccccc3)c21", "note": "[Example 94, 6-(Morpholin-4-ylcarbonyl)-3-(phenylamino)-2-(pyridin-4-yl)-1,5,6,7-tetrahydro-4H-pyrrolo[2,3-c]pyridin-4-one]", "IC50": 3}
{"smiles": "CN1CCN(C(=O)N2CC(=O)c3c([nH]c(-c4ccncc4)c3Nc3ccccc3)C2)CC1", "note": "[Example 95, 6-[(4-Methylpiperazin-1-yl)carbonyl]-3-(phenylamino)-2-(pyridin-4-yl)-1,5,6,7-tetrahydro-4H-pyrrolo[2,3-c]pyridin-4-one]", "IC50": 9}
{"smiles": "O=C1CN(C(=O)NC2CCOCC2)Cc2[nH]c(-c3ccncc3)c(Nc3ccccc3)c21", "note": "[Example 96, 4-Oxo-3-(phenylamino)-2-(pyridin-4-yl)-N-(tetrahydro-2H-pyran-4-yl)-1,4,5,7-tetrahydro-6H-pyrrolo[2,3-c]pyridine-6-carboxamide]", "IC50": 55}
{"smiles": "O=C1CN(C(=O)Nc2cccnc2)Cc2[nH]c(-c3ccncc3)c(Nc3ccccc3)c21", "note": "[Example 97, 4-Oxo-3-(phenylamino)-N-(pyridin-3-yl)-2-(pyridin-4-yl)-1,4,5,7-tetrahydro-6H-pyrrolo[2,3-c]pyridine-6-carboxamide]", "IC50": 59}
{"smiles": "N#CCN1CC(=O)c2c([nH]c(-c3ccncc3)c2Nc2ccccc2)C1", "note": "[Example 98, [4-Oxo-3-(phenylamino)-2-(pyridin-4-yl)-1,4,5,7-tetrahydro-6H-pyrolo[2,3-c]pyridin-6-yl]acetonitrile]", "IC50": 16}
{"smiles": "Cc1cnccc1-c1[nH]c2c(c1Nc1ccccc1)C(=O)CN(C(=O)OC(C)(C)C)C2", "note": "[Example 99, tert-Butyl 2-(3-methylpyridin-4-yl)-4-oxo-3-(phenylamino)-1,4,5,7-tetrahydro-6H-pyrrolo[2,3-c]pyridine-6-carboxylate]", "IC50": 205}
{"smiles": "CC(C)(C)OC(=O)N1CC(=O)c2c([nH]c(-c3ccncc3Br)c2Nc2ccccc2)C1", "note": "[Example 100, tert-Butyl 2-(3-bromopyridin-4-yl)-4-oxo-3-(phenylamino)-1,4,5,7-tetrahydro-6H-pyrrolo[2,3-c]pyridine-6-carboxylate]", "IC50": 26}
{"smiles": "O=C1CNCc2[nH]c(-c3ccncc3F)c(Nc3ccccc3)c21", "note": "[Example 101, 2-(3-Fluoropyridin-4-yl)-3-(phenylamino)-1,5,6,7-tetrahydro-4H-pyrrolo[2,3-c]pyridin-4-one]", "IC50": 43}
{"smiles": "COc1cnccc1-c1[nH]c2c(c1Nc1ccccc1)C(=O)CN(C(=O)OC(C)(C)C)C2", "note": "[Example 102, tert-Butyl 2-(3-methoxypyridin-4-yl)-4-oxo-3-(phenylamino)-1,4,5,7-tetrahydro-6H-pyrrolo[2,3-c]pyridine-6-carboxylate]", "IC50": 17}
{"smiles": "COc1cnccc1-c1[nH]c2c(c1Nc1ccccc1)C(=O)CNC2", "note": "[Example 103, 2-(3-Methoxypyridin-4-yl)-3-(phenylamino)-1,5,6,7-tetrahydro-4H-pyrrolo[2,3-c]pyridin-4-one]", "IC50": 138}
{"smiles": "COC(=O)N1CC(=O)c2c([nH]c(-c3ccncc3OC)c2Nc2ccccc2)C1", "note": "[Example 104, Methyl 2-(3-methoxypyridin-4-yl)-4-oxo-3-(phenylamino)-1,4,5,7-tetrahydro-6H-pyrrolo[2,3-c]pyridine-6-carboxylate]", "IC50": 9}
{"smiles": "COc1cnccc1-c1[nH]c2c(c1Nc1ccccc1)C(=O)CN(C(C)=O)C2", "note": "[Example 105, 6-Acetyl-2-(3-methoxypyridin-4-yl)-3-(phenylamino)-1,5,6,7-tetrahydro-4H-pyrrolo[2,3-c]pyridin-4-one]", "IC50": 12}
{"smiles": "COc1cnccc1-c1[nH]c2c(c1Nc1ccccc1)C(=O)CN(C(=O)C(C)(C)C)C2", "note": "[Example 106, 6-(2,2-Dimethylpropanoyl)-2(3-methoxypyridin-4-yl)-3-(phenylamino)-1,5,6,7-tetrahydro-4H-pyrrolo[2,3-c]pyridin-4-one]", "IC50": 6}
{"smiles": "COc1cnccc1-c1[nH]c2c(c1Nc1ccccc1)C(=O)CN(S(C)(=O)=O)C2", "note": "[Example 107, 2-(3-Methoxypyridin-4-yl)-6(methylsulfonyl)-3-(phenylamino)-1,5,6,7-tetrahydro-4H-pyrrolo[2,3-c]pyridin-4-one]", "IC50": 6}
{"smiles": "COc1cnccc1-c1[nH]c2c(c1Nc1ccccc1)C(=O)CN(C(=O)C1CC1)C2", "note": "[Example 108, 6-(Cyclopropylcarbonyl)-2-(3-methoxypyridin-4-yl)-3-(phenylamino)-1,5,6,7-tetrahydro-4H-pyrrolo[2,3-c]pyridin-4-one]", "IC50": 8}
{"smiles": "COc1cnccc1-c1[nH]c2c(c1Nc1ccccc1)C(=O)CN(S(=O)(=O)C(C)C)C2", "note": "[Example 109, 2-(3-Methoxypyridin-4-yl)-3-(phenylamino)-6-(propan-2-ylsulfonyl)-1,5,6,7-tetrahydro-4H-pyrrolo[2,3-c]pyridin-4-one]", "IC50": 7}
{"smiles": "COc1cnccc1-c1[nH]c2c(c1Nc1ccccc1)C(=O)CN(S(=O)(=O)C(F)F)C2", "note": "[Example 110, 6-[(Difluoromethyl)sulfonyl]-2-(3-methoxypyridin-4-yl)-3-(phenylamino)-1,5,6,7-tetrahydro-4H-pyrrolo[2,3-c]pyridin-4-one]", "IC50": 6}
{"smiles": "COc1cnccc1-c1[nH]c2c(c1Nc1ccccc1)C(=O)CN(S(=O)(=O)CCC(F)(F)F)C2", "note": "[Example 111, 2-(3-Methoxypyridin-4-yl)-3-(phenylamino)-6-[(3,3,3-trifluoropropyl)sulfonyl]-1,5,6,7-tetrahydro-4H-pyrrolo[2,3-c]pyridin-4-one]", "IC50": 7}
{"smiles": "CC(=O)Nc1cc(-c2[nH]c3c(c2Nc2ccccc2)C(=O)CN(C(C)=O)C3)ccn1", "note": "[Example 112, N-{4-[6-Acetyl-4-oxo-3-(phenylamino)-4,5,6,7-tetrahydro-1H-pyrrolo[2,3-c]pyridin-2-yl]pyridin-2-yl}acetamide]", "IC50": 9}
{"smiles": "CC(=O)Nc1cc(-c2[nH]c3c(c2Nc2ccccc2)C(=O)CN(C(=O)c2cnc[nH]2)C3)ccn1", "note": "[Example 113, N-{4-[6-(1H-Imidazol-5-ylcarbonyl)-4-oxo-3-(phenylamino)-4,5,6,7-tetrahydro-1H-pyrrolo[2,3-c]pyridin-2-yl]pyridin-2-yl}acetamide]", "IC50": 34}
{"smiles": "CC(=O)Nc1cc(-c2[nH]c3c(c2Nc2ccccc2)C(=O)CN(C(=O)c2ccccn2)C3)ccn1", "note": "[Example 114, N-{4-[4-Oxo-3-(phenylamino)-6-(pyridin-2-ylcarbonyl)-4,5,6,7-tetrahydro-1H-pyrrolo[2,3-c]pyridin-2-yl]pyridin-2-yl}acetamide]", "IC50": 63}
{"smiles": "CC(=O)Nc1cc(-c2[nH]c3c(c2Nc2ccccc2)C(=O)CN(C(=O)c2cccnc2)C3)ccn1", "note": "[Example 115, N-{4-[4-Oxo-3-(phenylamino)-6-(pyridin-3-ylcarbonyl)-4,5,6,7-tetrahydro-1H-pyrrolo[2,3-c]pyridin-2-yl]pyridin-2-yl}acetamide]", "IC50": 45}
{"smiles": "CC(=O)Nc1cc(-c2[nH]c3c(c2Nc2ccccc2)C(=O)CN(C(=O)c2ccncc2)C3)ccn1", "note": "[Example 116, N-{4-[4-Oxo-3-(phenylamino)-6-(pyridin-4-ylcarbonyl)-4,5,6,7-tetrahydro-1H-pyrrolo[2,3-c]pyridin-2-yl]pyridin-2-yl}acetamide]", "IC50": 26}
{"smiles": "CC(=O)Nc1cc(-c2[nH]c3c(c2Nc2ccccc2)C(=O)CN(S(=O)(=O)c2cnc[nH]2)C3)ccn1", "note": "[Example 117, N-{4-[6-(1H-Imidazol-5-ylsulfonyl)-4-oxo-3-(phenylamino)-4,5,6,7-tetrahydro-1H-pyrrolo[2,3-c]pyridin-2-yl]pyridin-2-yl}acetamide]", "IC50": 9}
{"smiles": "CC(=O)Nc1cc(-c2[nH]c3c(c2Nc2ccccc2)C(=O)CN(C(=O)c2cn(C)cn2)C3)ccn1", "note": "[Example 118, N-(4-{6-[(1-Methyl-1H-imidazol-4-yl)carbonyl]-4-oxo-3-(phenylamino)-4,5,6,7-tetrahydro-1H-pyrrolo[2,3-c]pyridin-2-yl}pyridin-2-yl)acetamide]", "IC50": 149}
{"smiles": "CC(C)(C)OC(=O)N1CC(=O)c2c([nH]c(-c3ccnc(NC(=O)C(C)(C)F)c3)c2Nc2ccccc2)C1", "note": "[Example 119, tert-Butyl 2-{2-[(2-fluoro-2-methylpropanoyl)amino]pyridin-4-yl}-4-oxo-3-(phenylamino)-1,4,5,7-tetrahydro-6H-pyrrolo[2,3-c]pyridine-6-carboxylate]", "IC50": 42}
{"smiles": "CC(C)(C)OC(=O)N1CC(=O)c2c([nH]c(-c3ccnc(NC(=O)c4cncs4)c3)c2Nc2ccccc2)C1", "note": "[Example 122, tert-Butyl 4-oxo-3-(phenylamino)-2-{2-[(1,3-thiazol-5-ylcarbonyl)amino]pyridin-4-yl}-1,4,5,7-tetrahydro-6H-pyrrolo[2,3-c]pyridine-6-carboxylate]", "IC50": 6}
{"smiles": "O=C1CN(S(=O)(=O)CCO)Cc2[nH]c(-c3ccncc3)c(Nc3ccccc3)c21", "note": "[Example 123, 3-Anilino-6-[(2-hydroxyethyl)sulfonyl]-2-(pyridin-4-yl)-1,5,6,7-tetrahydro-4H-pyrrolo[2,3-c]pyridin-4-one]", "IC50": 3}
{"smiles": "CC(=O)Nc1cc(-c2[nH]c3c(c2Nc2ccccc2)C(=O)CN(C(=O)N(C)C)C3)ccn1", "note": "[Example 124, 2-(2-Acetamidopyridin-4-yl)-3-anilino-N,N-dimethyl-4-oxo-1,4,5,7-tetrahydro-6H-pyrrolo[2,3-c]pyridine-6-carboxamide]", "IC50": 4}
